The target in data set [1] is T1, enzyme FAAH (Fatty Acid Amide Hydrolase) (Mus musculus, UniProt O08914).
T1 construct: The membrane homogenates are prepared extemporaneously by homogenizing the tissues; from tissue; host or cells: mouse brain (minus the cerebellum), membrane homogenate
T1 sequence (O08914 1-579): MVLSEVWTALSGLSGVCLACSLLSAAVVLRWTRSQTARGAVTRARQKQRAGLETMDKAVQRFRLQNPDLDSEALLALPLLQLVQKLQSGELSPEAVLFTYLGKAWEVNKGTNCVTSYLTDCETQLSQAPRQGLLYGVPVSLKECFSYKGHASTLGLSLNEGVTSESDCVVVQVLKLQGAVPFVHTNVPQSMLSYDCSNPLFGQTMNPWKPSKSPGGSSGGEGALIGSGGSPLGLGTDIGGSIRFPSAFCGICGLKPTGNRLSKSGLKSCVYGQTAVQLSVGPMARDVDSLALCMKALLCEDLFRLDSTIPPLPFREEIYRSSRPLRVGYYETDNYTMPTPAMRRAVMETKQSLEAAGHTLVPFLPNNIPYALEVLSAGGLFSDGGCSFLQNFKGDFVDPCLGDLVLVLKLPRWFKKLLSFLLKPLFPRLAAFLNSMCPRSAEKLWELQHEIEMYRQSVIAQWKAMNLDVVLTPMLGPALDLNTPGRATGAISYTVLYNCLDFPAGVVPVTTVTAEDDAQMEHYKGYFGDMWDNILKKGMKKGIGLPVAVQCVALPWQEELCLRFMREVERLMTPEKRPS
The experiment in a line: radioenzymatic test: hydrolysis of anandamide [ethanolamine 1-3H] with FAAH, mouse brain membrane homogenates. Format: biochemical. Particulars: mouse brain membrane homogenate; preincubation 20 minutes at 25° C.; anandamide 10 μM; read-out: IC50 (concentration that inhibits 50% of the control enzymatic activity of FAAH). The procedure: The compounds of the invention underwent pharmacological tests to determine their inhibitory effect on the enzyme FAAH (Fatty Acid Amide Hydrolase).
Thus, mouse brains (minus the cerebellum) are removed and stored at −80° C. The membrane homogenates are prepared extemporaneously by homogenizing the tissues using a Precellys® machine in reaction buffer (10 mM Tris-HCl, pH=8, 150 mM NaCl and 1 mM ethylenediaminetetraacetic acid (EDTA)). The enzymatic reaction is performed in 96-well Multiscreen filtration plates in a final volume of 70 μL. Reaction buffer supplemented with fatty acid-free bovine serum albumin (BSA, 1 mg/ml) is used for the enzymatic reaction and the dilution of the compounds and of the anandamide [ethanolamine 1-^3H]. The reaction buffer containing BSA (43 μL/well), the diluted test compounds at different concentrations (7 μL/well containing 1% DMSO) and the membrane preparation (10 μL/well, i.e. 200 μg of tissue per test) are successively added to the wells. After preincubation for 20 minutes of the compounds with the enzyme at 25° C., the reaction is started by adding anandamide [ethanolamine 1-^3H]. (Specific activity of 15-20 Ci/mmol) diluted with cold anandamide (10 μL/well, final concentration of 10 μM, 0.01 μCi per test). After incubation for 20 minutes at 25° C., the enzymatic reaction is stopped by adding a […] of active charcoal prepared in 1.5M NaCl buffer and 0.5 M HCl (50 μL/well). The mixture is stirred for 10 minutes and the aqueous phase containing the ethanolamine [1-^3H] is then recovered by filtration under vacuum and counted by liquid scintillation.

The subject of data set [2] is male OF1 mice. The experiment in a line: test of analgesia: abdominal stretching induced with PBQ (phenylbenzoquinone). Format: in vivo, mouse. Particulars: 30 mg/kg p.o. at 120 minutes. As for the experimental part: The in vivo activity of the compounds of the invention was evaluated in a test of analgesia.
Thus, the intraperitoneal (i.p.) administration of PBQ (phenylbenzoquinone, 2 mg/kg in 0.9% sodium chloride solution containing 5% ethanol) to male OF1 mice weighing 25 to 30 g causes abdominal stretching, on average 30 torsions or contractions within a period of 5 to 15 minutes after injection. The test compounds are administered orally (p.o.) or intraperitoneally (i.p.) suspended in Tween 80 at 0.5%, 60 minutes or 120 minutes before the administration of PBQ. Under these conditions, the compounds of the invention that are the most powerful reduce by 35% to 80% the number of stretches induced with PBQ, over a dose range of between 1 and 30 mg/kg.
For example, compound 5 of Table 1 reduces by 50% the number of stretches induced with PBQ, at a dose of 30 mg/kg p.o. at 120 minutes.

`CNC(=O)c1cc(COC(=O)NCC2CC3(CCN(c4ccc(-c5ccc(F)cc5)cn4)C3)C2)on1` (single isomer, unassigned) [Compound 12, 3-(Methylcarbamoyl)isoxazol-5-ylmethyl 6-[5-(4-fluorophenyl)pyridin-2-yl]-6-azaspiro[3.4]oct-2-ylmethylcarbamate] had a melting point of 171 to 173 °C. The IC50 in data set [1] stood at 0.85 nM.
For `NC(=O)c1cc(COC(=O)NCC2CC3(CCN(c4ccc5cc(F)ccc5n4)CC3)C2)on1` [Compound 6, 3-Carbamoylisoxazol-5-ylmethyl[7-(6-fluoroquinolin-2-yl)-7-azaspiro[3.5]non-2-yl]methylcarbamate], the melting point lay within 190 to 192 °C. Besides, the IC50 in data set [1] was 0.25 nM.
As for `CNC(=O)c1cc(COC(=O)NC2CC3(CCN(c4ccc5cc(Cl)ccc5n4)CC3)C2)on1` [Compound 19, 3-(Methylcarbamoyl)isoxazol-5-ylmethyl[7-(6-chloroquinolin-2-yl)-7-azaspiro[3.5]non-2-yl]carbamate], the IC50 in data set [1] was determined as 1.8 nM.
Still for that read-out and setting: the result for `NC(=O)c1cc(COC(=O)NC2CC3(CCN(c4ccc(Br)cn4)CC3)C2)on1` [Compound 4, 3-carbamoylisoxazol-5-ylmethyl[7-(5-bromopyridin-2-yl)-7-azaspiro[3.5]non-2-yl]carbamate] reads 8.2 nM; that for `NC(=O)c1cc(COC(=O)NC2CC3(CCN(c4ccc(-c5ccc(F)cc5)cn4)C3)C2)on1` (mixture of isomers) [Compound 10, 3-Carbamoylisoxazol-5-ylmethyl{6-[5-(4-fluorophenyl)pyridin-2-yl]-6-azaspiro[3.4]oct-2-yl}carbamate], 2.3 nM; that for `NC(=O)c1cc(COC(=O)NC2CC3(CCN(c4cncc(-c5ccc(F)cc5)n4)CC3)C2)on1` [Compound 25, 3-carbamoylisoxazol-5-ylmethyl{7-[6-(4-fluorophenyl)pyrazin-2-yl]-7-azaspiro[3.5]non-2-yl}carbamate], 1.7 nM.
`CC(C)Cc1ccc(N2CCC3(CC2)CC(NC(=O)OCc2cc(C(N)=O)no2)C3)nc1` [Compound 31, 3-Carbamoylisoxazol-5-ylmethyl[7-(5-isobutylpyridin-2-yl)-7-azaspiro[3,5]non-2-yl]carbamate] gave a melting point of 178 to 180 °C. For the same compound, in data set [1], the IC50 is 4.3 nM.
For `NC(=O)c1cc(COC(=O)NC2CC3(CCN(c4ccc(-c5ccc(F)cc5)cn4)CC3)C2)on1` [Compound 5, 3-Carbamoylisoxazol-5-ylmethyl{7-[5-(4-fluorophenyl)pyridin-2-yl]-7-azaspiro[3.5]non-2-yl}carbamate], the melting point lay within 216 to 218 °C. Moreover, the “reduction of the number of stretches induced with PBQ” value in data set [2] was 50%.
In the case of `CNC(=O)c1cc(COC(=O)NCC2CC3(CCN(c4ccc(-c5ccc(F)cc5)cn4)C3)C2)on1` (single isomer, unassigned) [Compound 13, 3-(Methylcarbamoyl)isoxazol-5-ylmethyl 6-[5-(4-fluorophenyl)pyridin-2-yl]-6-azaspiro[3.4]oct-2-ylmethylcarbamate], the melting point lay within 180 to 182 °C.
Still for that read-out and setting: the result for `CNC(=O)c1cc(COC(=O)NC2CC3(CCN(c4ccc(-c5ccc(F)cc5)cn4)C3)C2)on1` (single isomer, unassigned) [Compound 17, 3-(Methylcarbamoyl)isoxazol-5-ylmethyl{6-[5-(4-fluorophenyl)pyridin-2-yl]-6-azaspiro[3.4]oct-2-yl}carbamate] reads 203 to 205 °C.
For `CNC(=O)c1cc(COC(=O)NC2CC3(CCN(c4ccc(-c5ccc(F)cc5)cn4)CC3)C2)on1` [Compound 8, 3-(Methylcarbamoyl)isoxazol-5-ylmethyl 7-[5-(4-fluorophenyl)pyridin-2-yl]-7-azaspiro[3.5]non-2-ylcarbamate], the melting point is 219 to 221 °C. In addition, in data set [1], the IC50 worked out at 0.72 nM.
Turning to `NC(=O)c1cc(COC(=O)NC2CC23CCN(c2nccc(C(F)(F)F)n2)CC3)on1` (stereo not drawn) [Compound 40, 3-Carbamoylisoxazol-5-ylmethyl[6-(4-trifluoromethylpyrimidin-2-yl)-6-azaspiro[2.5]oct-1-yl]carbamate], the IC50 in data set [1] is 0.5 nM.
Regarding `CNC(=O)c1cc(COC(=O)NC2CC3(CCN(c4ccc(-c5ccc(F)cc5)cn4)C3)C2)on1` (single isomer, unassigned) [Compound 18, 3-(Methylcarbamoyl)isoxazol-5-ylmethyl{6-[5-(4-fluorophenyl)pyridin-2-yl]-6-azaspiro[3.4]oct-2-yl}carbamate], the melting point lay in the range of 194 to 196 °C.

Source of the values: patent publication US8889702B2, “Derivatives of azaspiranyl-alkylcarbamates of 5-member heterocyclic compounds, preparation thereof and therapeutic use thereof” (Sanofi, priority 2009, dated 2014).
